Source: US6737383B1, “Herbicidal oxadiazolidines” (priority 1999, dated 2004)

What was measured:
[1] = tested on: surinam grass; assay: Test B pre/postemergence surinam grass; type: in vivo, Brachiaria decumbens
Method in brief: (§1)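 Response is a visual 0-to-10 score relative to untreated plants, where 0 means no effect and 10 means complete control, taken twelve to sixteen days after application. Treatments went onto soil at planting and onto foliage of 1- to 4-leaf plants, using a surfactant-containing non-phytotoxic solvent.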

[2] = tested on: wheat; assay: Test B pre/postemergence wheat; type: in vivo, Triticum aestivum
Method in brief: as §1

[3] = tested on: crabgrass; assay: Test B pre/postemergence crabgrass; type: in vivo, Digitaria sanguinalis
Method in brief: as §1

[4] = tested on: blackgrass; assay: Test B pre/postemergence blackgrass; type: in vivo, Alopecurus myosuroides
Method in brief: as §1

[5] = tested on: velvetleaf; assay: Test B pre/postemergence velvetleaf; type: in vivo, Abutilon theophrasti
Method in brief: as §1

[6] = tested on: cocklebur; assay: Test B pre/postemergence cocklebur; type: in vivo, Xanthium strumarium
Method in brief: as §1

[7] = tested on: bamyardgrass; assay: Test B flood test barnyardgrass; type: in vivo, Echinochloa crus-galli
Method in brief: (§2)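 Plants were grown to the 2-leaf stage before treatment with test chemical, then held in a greenhouse for twelve to sixteen days. Injury was visually rated against untreated controls on a 0–10 scale, where 0 is no effect and 10 is complete control.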

[8] = tested on: pigweed; assay: Test B pre/postemergence pigweed; type: in vivo, Amaranthus retroflexus
Method in brief: as §1

[9] = tested on: purple nutsedge; assay: Test B pre/postemergence purple nutsedge; type: in vivo, Cyperus rotundus; settings: Postemergence
Method in brief: as §1

[10] = tested on: wild oat; assay: Test B pre/postemergence wild oat; type: in vivo, Avena fatua
Method in brief: as §1

[11] = tested on: duck salad; assay: Test B flood test duck salad; type: in vivo, Heteranthera limosa
Method in brief: as §2

[12] = tested on: bedstraw; assay: Test B pre/postemergence bedstraw; type: in vivo, Galium aparine
Method in brief: as §1

[13] = tested on: morningglory; assay: Test B pre/postemergence morningglory; type: in vivo, Ipomoea hederacea
Method in brief: as §1

[14] = tested on: rice; assay: Test B flood test rice; type: in vivo, Oryza sativa
Method in brief: as §2

[15] = tested on: sugar beet; assay: Test B pre/postemergence sugar beet; type: in vivo, Beta vulgaris
Method in brief: as §1

[16] = tested on: giant foxtail; assay: Test B pre/postemergence giant foxtail; type: in vivo, Setaria faberii
Method in brief: as §1

[17] = Preemergence, Rate 62 g/ha, scale of 0 to 10 where 0 is no effect and 10 is complete control
[18] = Preemergence, Rate 250 g/ha, scale of 0 to 10 where 0 is no effect and 10 is complete control
[19] = Preemergence, Rate 500 g/ha, scale of 0 to 10 where 0 is no effect and 10 is complete control
[20] = Rate 62 g/ha, Postemergence, scale of 0 to 10 where 0 is no effect and 10 is complete control
[21] = Rate 125 g/ha, Preemergence, scale of 0 to 10 where 0 is no effect and 10 is complete control
[22] = Rate 500 g/ha, Postemergence, scale 0 to 10, 0 no effect, 10 complete control
[23] = Rate 125 g/ha, Postemergence, scale 0 to 10
[24] = Rate 62 g/ha, headed Pre-emergence (flood test species), scale 0 to 10 (0 no effect, 10 complete control)
[25] = Rate 125 g/ha, Pre-emergence, flood test species, scale 0 to 10 where 0 is no effect and 10 is complete control
[26] = Rate 250 g/ha, Pre-emergence, flood-test species, scale 0 to 10, 0 is no effect, 10 is complete control
[27] = Rate 500 g/ha, Pre-emergence, flood test species, scale 0 to 10 (0 no effect, 10 complete control)

[2H]C([2H])([2H])n1c(=O)on(C(=O)N(c2ccc(F)cc2)C(C)C)c1=O [Compound 245]
3: B. signalgrass plant response rating [1, 17] | Velvetleaf plant response rating [5, 20] | Redroot pigweed plant response rating [8, 20] | Wild oats plant response rating [10, 17] | Bedstraw plant response rating [12, 20] | Sugarbeets plant response rating [15, 17]
2: Crabgrass plant response rating [3, 20] | Cocklebur plant response rating [6, 18] | Cocklebur plant response rating [6, 21] | Bedstraw plant response rating [12, 21]
6: Plant response rating (0 to 10; 0 is no effect, 10 is complete control), B. signalgrass ([1]; Rate 250 g/ha, Postemergence) | Wheat plant response rating [2, 17] | Wheat plant response rating [2, 21] | Plant response rating, Cocklebur [6, 19] | Morningglory plant response rating [13, 18] | Plant response rating, Morningglory [13, 19]
9: Plant response rating, Wheat [2, 19] | Crabgrass plant response rating [3, 17] | Crabgrass plant response rating [3, 18] | Crabgrass plant response rating [3, 21] | Plant response rating (0 to 10; 0 is no effect, 10 is complete control), Redroot pigweed ([8]; Rate 250 g/ha, Postemergence) | Redroot pigweed plant response rating [8, 22] | Bedstraw plant response rating [12, 18] | Bedstraw plant response rating [12, 23] | Plant response rating (0 to 10; 0 is no effect, 10 is complete control), Bedstraw ([12]; Rate 250 g/ha, Postemergence) | Bedstraw plant response rating [12, 22] | Plant response rating (0 to 10; 0 is no effect, 10 is complete control), Morningglory ([13]; Rate 250 g/ha, Postemergence) | Morningglory plant response rating [13, 22] | Giant foxtail plant response rating [16, 17] | Giant foxtail plant response rating [16, 21]
1: B. signalgrass plant response rating [1, 20] | Cocklebur plant response rating [6, 22] | Morningglory plant response rating [13, 21] | Sugarbeets plant response rating [15, 20]
0: Cocklebur plant response rating [6, 17] | Cocklebur plant response rating [6, 20] | Cocklebur plant response rating [6, 23] | Plant response rating (0 to 10; 0 is no effect, 10 is complete control), Cocklebur ([6]; Rate 250 g/ha, Postemergence) | Barnyardgrass plant response rating [7, 24] | Barnyardgrass plant response rating [7, 25] | Barnyardgrass plant response rating [7, 26] | Barnyardgrass plant response rating [7, 27] | Nutsedge plant response rating ([9]; Rate 62 g/ha, scale of 0 to 10 where 0 is no effect and 10 is complete control) | Plant response rating (0 to 10; 0 is no effect, 10 is complete control), Nutsedge ([9]; Rate 250 g/ha) | Nutsedge plant response rating ([9]; Rate 500 g/ha, scale 0 to 10, 0 no effect, 10 complete control) | Wild oats plant response rating [10, 20] | Ducksalad plant response rating [11, 24] | Ducksalad plant response rating [11, 25] | Ducksalad plant response rating [11, 26] | Ducksalad plant response rating [11, 27] | Bedstraw plant response rating [12, 17] | Morningglory plant response rating [13, 17] | Rice plant response rating [14, 24] | Rice plant response rating [14, 25] | Rice plant response rating [14, 26] | Rice plant response rating [14, 27]
7: B. signalgrass plant response rating [1, 21] | Wheat plant response rating [2, 18] | Blackgrass plant response rating [4, 23] | Plant response rating (0 to 10; 0 is no effect, 10 is complete control), Blackgrass ([4]; Rate 250 g/ha, Postemergence) | Velvetleaf plant response rating [5, 17] | Velvetleaf plant response rating [5, 21] | Velvetleaf plant response rating [5, 22] | Sugarbeets plant response rating [15, 22]
8: B. signalgrass plant response rating [1, 18] | B. signalgrass plant response rating [1, 22] | Wheat plant response rating [2, 22] | Plant response rating (0 to 10; 0 is no effect, 10 is complete control), Crabgrass ([3]; Rate 250 g/ha, Postemergence) | Crabgrass plant response rating [3, 22] | Blackgrass plant response rating [4, 22] | Redroot pigweed plant response rating [8, 17] | Wild oats plant response rating [10, 22] | Sugarbeets plant response rating [15, 21] | Plant response rating (0 to 10; 0 is no effect, 10 is complete control), Giant foxtail ([16]; Rate 250 g/ha, Postemergence) | Giant foxtail plant response rating [16, 22]
10: Plant response rating, B. signalgrass [1, 19] | Plant response rating, Crabgrass [3, 19] | Blackgrass plant response rating [4, 17] | Blackgrass plant response rating [4, 18] | Plant response rating, Blackgrass [4, 19] | Blackgrass plant response rating [4, 21] | Velvetleaf plant response rating [5, 18] | Plant response rating, Velvetleaf [5, 19] | Redroot pigweed plant response rating [8, 18] | Plant response rating, Redroot pigweed [8, 19] | Redroot pigweed plant response rating [8, 21] | Wild oats plant response rating [10, 18] | Plant response rating, Wild oats [10, 19] | Plant response rating, Bedstraw [12, 19] | Sugarbeets plant response rating [15, 18] | Plant response rating, Sugarbeets [15, 19] | Giant foxtail plant response rating [16, 18] | Plant response rating, Giant foxtail [16, 19]
5: Wild oats plant response rating [10, 21] | Morningglory plant response rating [13, 20] | Giant foxtail plant response rating [16, 20]
4: B. signalgrass plant response rating ([1]; Rate 125 g/ha, Postemergence, scale 0 (no effect) to 10 (complete control)) | Wheat plant response rating [2, 20] | Blackgrass plant response rating [4, 20]
